Data published in patent publication US9642889B2, “Macrocyclic inhibitors of Flaviviridae viruses” (Selcia Limited, priority 2012, dated 2017).
Where two headings read alike, the source gives them in different places.

How the values were obtained:
[1] = rcm bond; 22-membered ring; Hoveyda-Grubbs II; 1,2-dichloroethane; 3.01 mM; 80.0 °C; 2 steps
[2] = rcm bond; 22-membered ring; Hoveyda-Grubbs II; 1,2-dichloroethane; 80.0 °C
[3] = system: Huh-7 HCV replicon cells (1b replicon); test: anti-HCV activity in Huh-7 cell line harboring a HCV replicon (luciferase readout); type: cell-based; conditions: Hepatitis C virus; for EC50: Huh-7, 72 h
cyclophilin A = cyclophilin A (Homo sapiens, UniProt P62937); test: Cyclophilin A TR-FRET competitive binding assay; conditions: competition with CsA-Cy5 for His-tagged CypA, two-hour incubation
cyclophilin A, sequence (P62937 whole entry, species assumed): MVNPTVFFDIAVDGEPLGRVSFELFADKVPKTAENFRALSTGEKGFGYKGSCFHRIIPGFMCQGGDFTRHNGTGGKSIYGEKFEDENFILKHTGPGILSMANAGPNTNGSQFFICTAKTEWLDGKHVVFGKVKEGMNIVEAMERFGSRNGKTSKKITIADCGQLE
Description: Cyclophilin A TR-FRET Competitive Binding Assay
Inhibitor potency was measured using a competitive binding assay with a time-resolved fluorescence resonance energy transfer (TR-FRET) readout. […] An IC50 value was calculated using a four-parameter logistic fit.

[4] = inhibition of viral replication, Huh-7 HCV replicon cells, 3 days, read-out: EC50
[5] = Huh-7, read-out: Replicon 1b % inhibition at 1 μM, 1b replicon, 1 μM compound

Compound: CC(C)[C@@H]1NCCCC=Cc2cc3cc(ccc3cn2)[C@@H](C)OC(=O)[C@@H]2CCCN(N2)C(=O)[C@H](C)NC1=O
- ring closure, yield of all isomers (from C=CCCCN[C@H](C(=O)N[C@@H](C)C(=O)N1CCC[C@@H](C(=O)O[C@H](C)c2ccc3cnc(C=C)cc3c2)N1)C(C)C, rcm bond, Hoveyda-Grubbs 2nd generation catalyst, toluene, 2.97 mM, 110.0 °C, 1.25 h): 56%

Compound: CC(C)[C@@H]1NS(=O)(=O)CC=Cc2cc3cc(ccc3cn2)[C@@H](C)OC(=O)[C@@H]2CCCN(N2)C(=O)[C@H](C)NC1=O
- ring closure, yield of all isomers (from C=CCS(=O)(=O)N[C@H](C(=O)N[C@@H](C)C(=O)N1CCC[C@@H](C(=O)O[C@H](C)c2ccc3cnc(C=C)cc3c2)N1)C(C)C, rcm bond, Hoveyda-Grubbs 2nd Generation Catalyst, toluene, 5.0 mM, 110.0 °C, 2.0 h): 13%

Compound: CC(C)[C@@H]1OC(=O)C(C)(C)CC=Cc2cc3cc(ccc3cn2)[C@@H](C)NC(=O)[C@@H]2CCCN(N2)C(=O)[C@H](C)NC1=O
- ring closure, yield of all isomers (from C=CCC(C)(C)C(=O)O[C@H](C(=O)N[C@@H](C)C(=O)N1CCC[C@@H](C(=O)N[C@H](C)c2ccc3cnc(C=C)cc3c2)N1)C(C)C, rcm bond, Hoveyda-Grubbs 2nd generation catalyst, toluene, 3.08 mM, 110.0 °C, 3.0 h): 15%

Compound: CC(C)[C@@H]1OC(=O)CC=Cc2cc3cc(ccc3cn2)[C@@H](C)NC(=O)[C@@H]2CCCN(N2)C(=O)[C@H](C)NC1=O
- ring closure, yield of all isomers (from C=CCC(=O)O[C@H](C(=O)N[C@@H](C)C(=O)N1CCC[C@@H](C(=O)N[C@H](C)c2ccc3cnc(C=C)cc3c2)N1)C(C)C, rcm bond, Hoveyda-Grubbs 2nd generation, toluene, 2.83 mM, 110.0 °C, 5.0 h): 1%

Compound: CC(C)[C@@H]1OC(=O)[C@H](C)C=Cc2cc3cc(ccc3cn2)[C@@H](C)NC(=O)[C@@H]2CCCN(N2)C(=O)[C@H](C)NC1=O
- ring closure, yield of all isomers (from C=Cc1cc2cc([C@@H](C)NC(=O)[C@@H]3CCCN(C(=O)[C@H](C)NC(=O)[C@@H](OC(=O)[C@H](C)/C=C/C)C(C)C)N3)ccc2cn1, rcm bond, Hoveyda-Grubbs 2nd generation, toluene, 2.99 mM, 125.0 °C, 5.75 h): 1%

Compound: CC(C)[C@@H]1OC(=O)[C@H](C)[C@H](O[Si](C)(C)C(C)(C)C)CC/C=C/c2cccc(c2)[C@@H](C)NC(=O)[C@@H]2CCCN(N2)C(=O)[C@H](C)NC1=O
- ring closure, isolated yield [1]: 16%
- ring closure, yield of all isomers (from C=CCC[C@@H](O[Si](C)(C)C(C)(C)C)[C@@H](C)C(=O)O[C@H](C(=O)N[C@@H](C)C(=O)N1CCC[C@@H](C(=O)N[C@H](C)c2cccc(C=C)c2)N1)C(C)C, rcm bond, Hoveyda-Grubbs 2nd generation catalyst, 1,2-dichloroethane, 3.01 mM, 80.0 °C, 2.0 h, 2 steps): 16%

Compound: CC(C)[C@@H]1OCCCC=Cc2cc3cc(ccc3cn2)[C@@H](C)OC(=O)[C@@H]2CCCN(N2)C(=O)[C@H](C)NC1=O
- ring closure, yield of all isomers (from C=CCCCO[C@H](C(=O)N[C@@H](C)C(=O)N1CCC[C@@H](C(=O)O[C@H](C)c2ccc3cnc(C=C)cc3c2)N1)C(C)C, rcm bond, Hoveyda-Grubbs 2nd Generation Catalyst, toluene, 3.0 mM, 100.0 °C, 0.58 h): 35%

Compound: CCC[C@@H]1CC=Cc2cc3cc(ccc3cn2)[C@@H](C)NC(=O)[C@@H]2CCCN(N2)C(=O)[C@H](C)NC(=O)[C@H](C(C)C)OC1=O
- ring closure, yield of all isomers (from C=CC[C@@H](CCC)C(=O)O[C@H](C(=O)N[C@@H](C)C(=O)N1CCC[C@@H](C(=O)N[C@H](C)c2ccc3cnc(C=C)cc3c2)N1)C(C)C, rcm bond, Hoveyda-Grubbs 2nd generation, toluene, 3.02 mM, 110.0 °C, 3.5 h): 6%

Compound: CO[C@@H]1C=Cc2cc3cc(ccc3cn2)[C@@H](C)NC(=O)[C@@H]2CCCN(N2)C(=O)[C@H](C)NC(=O)[C@H](C(C)C)OC(=O)[C@@H]1C
- ring closure, yield of all isomers (from C=Cc1cc2cc([C@@H](C)NC(=O)[C@@H]3CCCN(C(=O)[C@H](C)NC(=O)[C@@H](OC(=O)[C@H](C)[C@@H](/C=C/C)OC)C(C)C)N3)ccc2cn1, rcm bond, Hoveyda-Grubbs 2nd generation, toluene, 2.98 mM, 125.0 °C, 6.0 h): 1%

Compound: CO[C@@H]1CCC=Cc2cccc(c2)[C@@H](C)NC(=O)[C@@H]2CCCN(N2)C(=O)[C@H](C)NC(=O)[C@H](C(C)C)OC(=O)[C@@H]1C
- ring closure, yield of all isomers (from C=CCC[C@@H](OC)[C@@H](C)C(=O)O[C@H](C(=O)N[C@@H](C)C(=O)N1CCC[C@@H](C(=O)N[C@H](C)c2cccc(C=C)c2)N1)C(C)C, rcm bond, Hoveyda-Grubbs 2nd generation, 1,2-dichloroethane, 2.96 mM, 85.0 °C, 5.0 h): 32%

Compound: CO[C@H]1CC[C@@]2(/C=C/c3ccc4ccc(nc4c3)[C@@H](C)NC(=O)[C@@H]3CCCN(N3)C(=O)[C@H](C)NC(=O)[C@H](C(C)C)OC2=O)CC1
- ring closure, yield of all isomers (from CO[C@H]1CC[C@](/C=C/c2ccc3ccc([C@@H](C)N)nc3c2)(C(=O)O[C@H](C(=O)N[C@@H](C)C(=O)N2CCC[C@@H](C(=O)O)N2)C(C)C)CC1, amide bond, HATU/DIPEA, DCM, 4 steps): 6.2%

Compound: CC(C)[C@@H]1OC(=O)CCCC/C=C/c2cccc(c2)[C@@H](C)NC(=O)[C@@H]2CCCN(N2)C(=O)[C@H](C)NC1=O [Compound 8, (E)-(2R,5S,11S,14S)-14-Isopropyl-2,11-dimethyl-15-oxa-3,9,12,28-tetraaza-tricyclo[21.3.1.1*5,9*]octacosa-1 (27),21,23,25-tetraene-4,10,13,16-tetraone]
- ring closure, yield after HPLC [2]: 15%
- ring closure, yield of all isomers (from C=CCCCCC(=O)O[C@H](C(=O)N[C@@H](C)C(=O)N1CCC[C@@H](C(=O)N[C@H](C)c2cccc(C=C)c2)N1)C(C)C, rcm bond, Hoveyda-Grubbs 2nd generation catalyst, 1,2-dichloroethane, 80.0 °C, 2.3 h): 15%
- EC50 [3, 4]: < 1 µM
- inhibition at 1 µM [3, 5]: 95%
- IC50 (cyclophilin A): < 0.1 µM

Compound: CC(C)[C@H]1C(=O)N[C@@H](C)C(=O)N2CCC[C@H](N2)C(=O)N[C@H](C)c2cccc(c2)/C=C/CCCCC(=O)N1C [Compound 17, (E)-(2R,5S,11 S,14S)-14-Isopropyl-2,11,15-trimethyl-3,9,12,15,28-pentaaza-tricyclo[21.3.1.1*5,9*]octacosa-1 (27),21,23,25-tetraene-4,10,13,16-tetraone]
- ring closure, yield of all isomers (from C=CCCCCC(=O)N(C)[C@H](C(=O)N[C@@H](C)C(=O)N1CCC[C@@H](C(=O)N[C@H](C)c2cccc(C=C)c2)N1)C(C)C, rcm bond, Hoveyda-Grubbs 2nd generation catalyst, 1,2-dichloroethane, 3.33 mM, 80.0 °C, 3.0 h): 43%
- EC50 [3, 4]: 1.1 to 10 µM
- inhibition at 1 µM [3, 5]: 39%
- IC50 (cyclophilin A): 0.101 to 1 µM

Compound: CCN1CCOC2(/C=C/c3ccc4ccc(nc4c3)[C@@H](C)NC(=O)[C@@H]3CCCN(N3)C(=O)[C@H](C)NC(=O)[C@H](C(C)C)OC2=O)C1 (stereo partly drawn) [Compound 96]
- EC50 [3]: < 1 µM
- inhibition at 1 µM ([3]; Huh-7, read-out: Replicon 1b % inhibition at 1 μM): 91%
- IC50 (cyclophilin A): < 0.1 µM

Compound: CC(C)[C@@H]1OC(=O)C2(/C=C/c3ccc4ccc(nc4c3)[C@@H](C)NC(=O)[C@@H]3CCCN(N3)C(=O)[C@H](C)NC1=O)CN(S(C)(=O)=O)CCO2 (stereo partly drawn) [Compound 97]
- EC50 [3, 4]: < 1 µM
- inhibition at 1 µM [3, 5]: 96%
- IC50 (cyclophilin A): < 0.1 µM

Compound: CC(C)[C@@H]1OC(=O)C2(/C=C/c3ccc4ccc(nc4c3)[C@@H](C)NC(=O)[C@@H]3CCCN(N3)C(=O)[C@H](C)NC1=O)COC(=O)OC2 [Compound 98]
- EC50 [3, 4]: < 1 µM
- inhibition at 1 µM [3, 5]: 90%
- IC50 (cyclophilin A): < 0.1 µM

Compound: CC(C)[C@@H]1OC(=O)C(CF)(CF)/C=C/c2ccc3ccc(nc3c2)[C@@H](C)NC(=O)[C@@H]2CCCN(N2)C(=O)[C@H](C)NC1=O [Compound 99]
- EC50 [3, 4]: < 1 µM
- inhibition at 1 µM [3, 5]: 100%
- IC50 (cyclophilin A): < 0.1 µM

Compound: C[C@@H]1NC(=O)[C@H](C2CC2)OC(=O)C2(/C=C/c3ccc4ccc(nc4c3)[C@@H](C)NC(=O)[C@@H]3CCCN(N3)C1=O)CCC(O)C2 (stereo partly drawn) [Compound 102]
- EC50 [3, 4]: 1.1 to 10 µM
- inhibition at 1 µM [3, 5]: 13%
- IC50 (cyclophilin A): < 0.1 µM

Compound: CC(C)[C@@H]1OC(=O)C2(/C=C/c3ccc4ccc(nc4c3)[C@@H](C)NC(=O)[C@@H]3CCCN(N3)C(=O)[C@H](C)NC1=O)COC(CF)(CF)OC2 [Compound 107]
- EC50 [3, 4]: < 1 µM
- inhibition at 1 µM [3, 5]: 100%
- IC50 (cyclophilin A): < 0.1 µM

Compound: CCCC(=O)O[C@H]1CC[C@@]2(/C=C/c3ccc4ccc(nc4c3)[C@@H](C)NC(=O)[C@@H]3CCCN(N3)C(=O)[C@H](C)NC(=O)[C@H](C(C)C)OC2=O)CC1 [Compound 108]
- EC50 [3, 4]: < 1 µM
- inhibition at 1 µM [3, 5]: 99%
- IC50 (cyclophilin A): < 0.1 µM

Compound: CCC(=O)O[C@H]1CC[C@@]2(/C=C/c3ccc4ccc(nc4c3)[C@@H](C)NC(=O)[C@@H]3CCCN(N3)C(=O)[C@H](C)NC(=O)[C@H](C(C)C)OC2=O)CC1 [Compound 109]
- EC50 [3, 4]: < 1 µM
- inhibition at 1 µM [3, 5]: 99%
- IC50 (cyclophilin A): < 0.1 µM

Compound: CC(=O)O[C@H]1CC[C@@]2(/C=C/c3ccc4ccc(nc4c3)[C@@H](C)NC(=O)[C@@H]3CCCN(N3)C(=O)[C@H](C)NC(=O)[C@H](C(C)C)OC2=O)CC1 [Compound 110]
- EC50 [3, 4]: < 1 µM
- inhibition at 1 µM [3, 5]: 100%
- IC50 (cyclophilin A): < 0.1 µM

Compound: CCC(=O)O[C@H]1CC[C@]2(/C=C/c3ccc4ccc(nc4c3)[C@@H](C)NC(=O)[C@@H]3CCCN(N3)C(=O)[C@H](C)NC(=O)[C@H](C(C)C)OC2=O)CC1 [Compound 111]
- EC50 [3, 4]: < 1 µM
- inhibition at 1 µM [3, 5]: 99%
- IC50 (cyclophilin A): < 0.1 µM

Compound: CC(=O)O[C@H]1CC[C@]2(/C=C/c3ccc4ccc(nc4c3)[C@@H](C)NC(=O)[C@@H]3CCCN(N3)C(=O)[C@H](C)NC(=O)[C@H](C(C)C)OC2=O)CC1 [Compound 112]
- EC50 [3, 4]: < 1 µM
- inhibition at 1 µM [3, 5]: 100%
- IC50 (cyclophilin A): < 0.1 µM
